Laboratory results as given in the NIST ThermoML archive (doi:10.1016/j.jct.2007.07.005).

Experiment: xn = mol fraction of the nth substance listed
Conditions: Fluid (supercritical or subcritical phases), vibrating tube

CCCCCO [pentan-1-ol] + O=C=O
Conditions | mass density [kg/m3]
352.79 K, 11040 kPa, x2 = 0.4651 | 785.81
352.79 K, 12030 kPa, x2 = 0.4651 | 787.74
352.79 K, 13014 kPa, x2 = 0.4651 | 789.67
352.79 K, 13996 kPa, x2 = 0.4651 | 791.51
352.79 K, 15009 kPa, x2 = 0.4651 | 793.37
352.79 K, 16021 kPa, x2 = 0.4651 | 795.22
352.79 K, 17023 kPa, x2 = 0.4651 | 797.01
352.79 K, 18036 kPa, x2 = 0.4651 | 798.78
352.79 K, 19033 kPa, x2 = 0.4651 | 800.49
352.79 K, 20034 kPa, x2 = 0.4651 | 802.15
352.79 K, 21019 kPa, x2 = 0.4651 | 803.78
352.79 K, 22005 kPa, x2 = 0.4651 | 805.38
352.79 K, 23048 kPa, x2 = 0.4651 | 807.02
352.79 K, 24005 kPa, x2 = 0.4651 | 808.54
352.8 K, 9062 kPa, x2 = 0.3624 | 787.17
352.8 K, 10017 kPa, x2 = 0.3624 | 788.44
352.8 K, 10962 kPa, x2 = 0.3624 | 789.67
352.8 K, 12014 kPa, x2 = 0.3624 | 790.98
352.8 K, 13057 kPa, x2 = 0.3624 | 792.31
352.8 K, 13992 kPa, x2 = 0.3624 | 793.46
352.8 K, 14992 kPa, x2 = 0.3624 | 794.66
352.8 K, 16050 kPa, x2 = 0.3624 | 795.91
352.8 K, 16062 kPa, x2 = 0.8573 | 704.48
352.8 K, 17018 kPa, x2 = 0.3624 | 797.04
352.8 K, 17045 kPa, x2 = 0.8573 | 717.71
352.8 K, 17979 kPa, x2 = 0.3624 | 798.17
352.8 K, 18036 kPa, x2 = 0.8573 | 728.91
352.8 K, 19024 kPa, x2 = 0.8573 | 738.63
352.8 K, 19050 kPa, x2 = 0.3624 | 799.37
352.8 K, 20029 kPa, x2 = 0.3624 | 800.46
352.8 K, 20047 kPa, x2 = 0.8573 | 747.71
352.8 K, 21012 kPa, x2 = 0.8573 | 755.39
352.8 K, 21035 kPa, x2 = 0.3624 | 801.59
352.8 K, 21985 kPa, x2 = 0.3624 | 802.63
352.8 K, 22013 kPa, x2 = 0.8573 | 762.78
352.8 K, 23021 kPa, x2 = 0.3624 | 803.75
352.8 K, 23034 kPa, x2 = 0.8573 | 769.78
352.8 K, 24022 kPa, x2 = 0.3624 | 804.82
352.8 K, 24038 kPa, x2 = 0.8573 | 776.16
352.8 K, 25026 kPa, x2 = 0.3624 | 805.9
352.8 K, 25052 kPa, x2 = 0.8573 | 782.21
352.81 K, 3095 kPa, x2 = 0.0816 | 772.79
352.81 K, 4022 kPa, x2 = 0.0816 | 773.74
352.81 K, 5003 kPa, x2 = 0.0816 | 774.75
352.81 K, 5979 kPa, x2 = 0.0816 | 775.73
352.81 K, 7007 kPa, x2 = 0.0816 | 776.72
352.81 K, 7981 kPa, x2 = 0.0816 | 777.7
352.81 K, 9053 kPa, x2 = 0.0816 | 778.72
352.81 K, 10025 kPa, x2 = 0.0816 | 779.66
352.81 K, 11031 kPa, x2 = 0.0816 | 780.6
352.81 K, 11999 kPa, x2 = 0.0816 | 781.51
352.81 K, 13023 kPa, x2 = 0.0816 | 782.45
352.81 K, 14012 kPa, x2 = 0.0816 | 783.34
352.81 K, 15005 kPa, x2 = 0.7274 | 763.67
352.81 K, 15006 kPa, x2 = 0.0816 | 784.24
352.81 K, 15032 kPa, x2 = 0.9216 | 609.93
352.81 K, 15993 kPa, x2 = 0.0816 | 785.1
352.81 K, 16001 kPa, x2 = 0.9216 | 637.91
352.81 K, 16021 kPa, x2 = 0.7274 | 769.33
352.81 K, 17044 kPa, x2 = 0.9216 | 660.91
352.81 K, 17045 kPa, x2 = 0.7274 | 774.53
352.81 K, 17064 kPa, x2 = 0.0816 | 786
